Measurements taken from patent US10004701B2, “Methods and compositions for treating infection” (UNIVERSITY OF ROCHESTER, priority 2012, dated 2018).
Structures can show the parent of a compound that is named as a salt. Where two headings read alike, the source gives them in different places.

Tests used:
Assay in all cases: AK assay 384-well format, Prestwick library screening
E. faecium = format: cell-based, Enterococcus faecium; settings: Enterococcus faecium, 3 h, 50 μM final drug concentration
[1] = system: S. aureus strain USA300-0114; format: cell-based, Staphylococcus aureus; settings: Staphylococcus aureus, USA300, 3 h, 50 μM final drug concentration
K. pneumoniae = format: cell-based, Klebsiella pneumoniae; settings: Klebsiella pneumoniae, 3 h, 50 μM final drug concentration
[2] = system: A. baumannii strain 98-37-09; format: cell-based, Acinetobacter baumannii; settings: Acinetobacter baumannii, 983709, 3 h, 50 μM final drug concentration
P. aeruginosa = format: cell-based, Pseudomonas aeruginosa; settings: Pseudomonas aeruginosa, 3 h, 50 μM final drug concentration
E. cloacae = format: cell-based, Enterobacter cloacae; settings: Enterobacter cloacae, 3 h, 50 μM final drug concentration
E. coli = format: cell-based, Escherichia coli; settings: Escherichia coli, 3 h, 50 μM final drug concentration
[3] = 384-well format, cutoff for positive-scoring molecules 3-fold increase, read-out: AK-based Prestwick Library Screening Results, E. faecium (increase in extracellular AK activity)
[4] = 384-well format, cutoff for positive-scoring molecules 3-fold increase, read-out: AK-based Prestwick Library Screening Results, S. aureus (increase in extracellular AK activity)
[5] = 384-well format, cutoff for positive-scoring molecules 3-fold increase, read-out: AK-based Prestwick Library Screening Results, K. pneumoniae (increase in extracellular AK activity)
[6] = 384-well format, cutoff for positive-scoring molecules 3-fold increase, read-out: AK-based Prestwick Library Screening Results, A. baumannii (increase in extracellular AK activity)
[7] = 384-well format, cutoff for positive-scoring molecules 3-fold increase, read-out: AK-based Prestwick Library Screening Results, P. aeruginosa (increase in extracellular AK activity)
[8] = 384-well format, cutoff for positive-scoring molecules 3-fold increase, read-out: AK-based Prestwick Library Screening Results, E. cloacae (increase in extracellular AK activity)
[9] = 384-well format, cutoff for positive-scoring molecules 3-fold increase, read-out: AK-based Prestwick Library Screening Results, E. coli (increase in extracellular AK activity)
[10] = planktonic, cutoff for positive-scoring molecules 3-fold increase, read-out: AK-based Prestwick Library Screening Results, E. faecium (fold increase in extracellular AK activity)
[11] = planktonic, cutoff for positive-scoring molecules 3-fold increase, read-out: AK-based Prestwick Library Screening Results, S. aureus (fold increase in extracellular AK activity)
[12] = planktonic, cutoff for positive-scoring molecules 3-fold increase, read-out: AK-based Prestwick Library Screening Results, K. pneumoniae (fold increase in extracellular AK activity)
[13] = planktonic, cutoff for positive-scoring molecules 3-fold increase, read-out: AK-based Prestwick Library Screening Results, A. baumannii (fold increase in extracellular AK activity)
[14] = planktonic, cutoff for positive-scoring molecules 3-fold increase, read-out: AK-based Prestwick Library Screening Results, P. aeruginosa (fold increase in extracellular AK activity)
[15] = planktonic, cutoff for positive-scoring molecules 3-fold increase, read-out: AK-based Prestwick Library Screening Results, E. cloacae (fold increase in extracellular AK activity)
[16] = planktonic, cutoff for positive-scoring molecules 3-fold increase, read-out: AK-based Prestwick Library Screening Results, E. coli (fold increase in extracellular AK activity)

NS(=O)(=O)c1cc2c(cc1C(F)(F)F)NCNS2(=O)=O [Hydroflumethiazide]
fold induction at 50 µM (E. faecium; [3]): 0.9
fold induction at 50 µM [1, 4]: 0.5
fold induction at 50 µM (K. pneumoniae; [5]): 0.5
fold induction at 50 µM [2, 6]: 0.7
fold induction at 50 µM (P. aeruginosa; [7]): 0.5
fold induction at 50 µM (E. cloacae; [8]): 0.7
fold induction at 50 µM (E. coli; [9]): 0.7

CC[C@H]1CN2CC[C@H]1C[C@H]2[C@H](O)c1ccnc2ccc(OC)cc12 [Hydroquinine hydrobromide hydrate]
fold induction at 50 µM (E. faecium; planktonic, cutoff for positive 3-fold increase, read-out: AK-based Prestwick Library Screening Results, E. faecium (fold increase in extracellular AK activity)): 1.1
fold induction at 50 µM ([1]; planktonic, cutoff for positive 3-fold increase, read-out: AK-based Prestwick Library Screening Results, S. aureus (fold increase in extracellular AK activity)): 1
fold induction at 50 µM (K. pneumoniae; planktonic, cutoff for positive 3-fold increase, read-out: AK-based Prestwick Library Screening Results, K. pneumoniae (fold increase in extracellular AK activity)): 1.3
fold induction at 50 µM ([2]; planktonic, cutoff for positive 3-fold increase, read-out: AK-based Prestwick Library Screening Results, A. baumannii (fold increase in extracellular AK activity)): 1.2
fold induction at 50 µM (P. aeruginosa; planktonic, cutoff for positive 3-fold increase, read-out: AK-based Prestwick Library Screening Results, P. aeruginosa (fold increase in extracellular AK activity)): 1.2
fold induction at 50 µM (E. cloacae; planktonic, cutoff for positive 3-fold increase, read-out: AK-based Prestwick Library Screening Results, E. cloacae (fold increase in extracellular AK activity)): 1.6
fold induction at 50 µM (E. coli; planktonic, cutoff for positive 3-fold increase, read-out: AK-based Prestwick Library Screening Results, E. coli (fold increase in extracellular AK activity)): 1.2

OCCOCCN1CCN(C(c2ccccc2)c2ccc(Cl)cc2)CC1 (stereo not drawn) [Hydroxyzine dihydrochloride]
fold induction at 50 µM (E. faecium; planktonic E. faecium, 384-well, cutoff for positive-scoring molecules 3-fold increase, read-out: AK-based Prestwick Library Screening Results: E. faecium (increase in extracellular AK activity)): 0.9
fold induction at 50 µM ([1]; planktonic S. aureus, 384-well, cutoff for positive-scoring molecules 3-fold increase, read-out: AK-based Prestwick Library Screening Results: S. aureus (increase in extracellular AK activity)): 0.9
fold induction at 50 µM (K. pneumoniae; planktonic K. pneumoniae, 384-well, cutoff for positive-scoring molecules 3-fold increase, read-out: AK-based Prestwick Library Screening Results: K. pneumoniae (increase in extracellular AK activity)): 0.8
fold induction at 50 µM ([2]; planktonic A. baumannii, 384-well, cutoff for positive-scoring molecules 3-fold increase, read-out: AK-based Prestwick Library Screening Results: A. baumannii (increase in extracellular AK activity)): 1
fold induction at 50 µM (P. aeruginosa; planktonic P. aeruginosa, 384-well, cutoff for positive-scoring molecules 3-fold increase, read-out: AK-based Prestwick Library Screening Results: P. aeruginosa (increase in extracellular AK activity)): 1
fold induction at 50 µM (E. cloacae; planktonic E. cloacae, 384-well, cutoff for positive-scoring molecules 3-fold increase, read-out: AK-based Prestwick Library Screening Results: E. cloacae (increase in extracellular AK activity)): 1.6
fold induction at 50 µM (E. coli; planktonic E. coli, 384-well, cutoff for positive-scoring molecules 3-fold increase, read-out: AK-based Prestwick Library Screening Results: E. coli (increase in extracellular AK activity)): 1

Cc1cc(=O)oc2cc(O)ccc12 [Hymecromone]
fold induction at 50 µM (E. faecium; [10]): 1
fold induction at 50 µM [1, 11]: 1
fold induction at 50 µM (K. pneumoniae; [12]): 0.7
fold induction at 50 µM [2, 13]: 0.8
fold induction at 50 µM (P. aeruginosa; [14]): 1
fold induction at 50 µM (E. cloacae; [15]): 1.1
fold induction at 50 µM (E. coli; [16]): 0.9

c1ccc2c(c1)OCC(C1=NCCN1)O2 (stereo not drawn) [Idazoxan hydrochloride]
fold induction at 50 µM (E. faecium; cutoff for positive-scoring molecules 3-fold increase, read-out: AK-based Prestwick Library Screening Results, E. faecium (fold increase in extracellular AK activity)): 1
fold induction at 50 µM ([1]; cutoff for positive-scoring molecules 3-fold increase, read-out: AK-based Prestwick Library Screening Results, S. aureus (fold increase in extracellular AK activity)): 1.1
fold induction at 50 µM (K. pneumoniae; cutoff for positive-scoring molecules 3-fold increase, read-out: AK-based Prestwick Library Screening Results, K. pneumoniae (fold increase in extracellular AK activity)): 1
fold induction at 50 µM ([2]; cutoff for positive-scoring molecules 3-fold increase, read-out: AK-based Prestwick Library Screening Results, A. baumannii (fold increase in extracellular AK activity)): 1.1
fold induction at 50 µM (P. aeruginosa; cutoff for positive-scoring molecules 3-fold increase, read-out: AK-based Prestwick Library Screening Results, P. aeruginosa (fold increase in extracellular AK activity)): 1.2
fold induction at 50 µM (E. cloacae; cutoff for positive-scoring molecules 3-fold increase, read-out: AK-based Prestwick Library Screening Results, E. cloacae (fold increase in extracellular AK activity)): 1.5
fold induction at 50 µM (E. coli; cutoff for positive-scoring molecules 3-fold increase, read-out: AK-based Prestwick Library Screening Results, E. coli (fold increase in extracellular AK activity)): 1.1

O=c1[nH]c(=O)n([C@H]2C[C@H](O)[C@@H](CO)O2)cc1I [Idoxuridine]
fold induction at 50 µM (E. faecium; [3]): 1
fold induction at 50 µM [1, 4]: 0.7
fold induction at 50 µM (K. pneumoniae; [5]): 0.6
fold induction at 50 µM [2, 6]: 0.7
fold induction at 50 µM (P. aeruginosa; [7]): 0.6
fold induction at 50 µM (E. cloacae; [8]): 0.8
fold induction at 50 µM (E. coli; [9]): 0.7

O=P1(NCCCl)OCCCN1CCCl (stereo not drawn) [Ifosfamide]
fold induction at 50 µM (E. faecium; [10]): 0.8
fold induction at 50 µM [1, 11]: 0.8
fold induction at 50 µM (K. pneumoniae; [12]): 0.7
fold induction at 50 µM [2, 13]: 0.8
fold induction at 50 µM (P. aeruginosa; [14]): 0.9
fold induction at 50 µM (E. cloacae; [15]): 1.4
fold induction at 50 µM (E. coli; [16]): 9

O=C(NCNC(=O)NC1C(=O)NC(=O)N1CO)NC1C(=O)NC(=O)N1CO (stereo not drawn) [Imidurea]
fold induction at 50 µM (E. faecium; planktonic E. faecium, […], read-out: AK-based Prestwick library screening result, E. faecium (fold increase in extracellular AK activity)): 0.9
fold induction at 50 µM ([1]; planktonic S. aureus, […], read-out: AK-based Prestwick library screening result, S. aureus (fold increase in extracellular AK activity)): 0.7
fold induction at 50 µM (K. pneumoniae; planktonic K. pneumoniae, […], read-out: AK-based Prestwick library screening result, K. pneumoniae (fold increase in extracellular AK activity)): 0.7
fold induction at 50 µM ([2]; planktonic A. baumannii, […], read-out: AK-based Prestwick library screening result, A. baumannii (fold increase in extracellular AK activity)): 0.8
fold induction at 50 µM (P. aeruginosa; planktonic P. aeruginosa, […], read-out: AK-based Prestwick library screening result, P. aeruginosa (fold increase in extracellular AK activity)): 0.8
fold induction at 50 µM (E. cloacae; planktonic E. cloacae, […], read-out: AK-based Prestwick library screening result, E. cloacae (fold increase in extracellular AK activity)): 1.2
fold induction at 50 µM (E. coli; planktonic E. coli, […], read-out: AK-based Prestwick library screening result, E. coli (fold increase in extracellular AK activity)): 0.9

C[C@@H](O)[C@H]1C(=O)N2C(C(=O)O)=C(SCCN=CN)C[C@H]12 [Imipenem]
fold induction at 50 µM (E. faecium; planktonic E. faecium, cutoff for positive-scoring molecules 3-fold increase, read-out: AK-based Prestwick Library Screening Results, E. faecium (increase in extracellular AK activity)): 0.9
fold induction at 50 µM ([1]; planktonic S. aureus, cutoff for positive-scoring molecules 3-fold increase, read-out: AK-based Prestwick Library Screening Results, S. aureus (increase in extracellular AK activity)): 2.5
fold induction at 50 µM (K. pneumoniae; planktonic K. pneumoniae, cutoff for positive-scoring molecules 3-fold increase, read-out: AK-based Prestwick Library Screening Results, K. pneumoniae (increase in extracellular AK activity)): 1.7
fold induction at 50 µM ([2]; planktonic A. baumannii, cutoff for positive-scoring molecules 3-fold increase, read-out: AK-based Prestwick Library Screening Results, A. baumannii (increase in extracellular AK activity)): 1.2
fold induction at 50 µM (P. aeruginosa; planktonic P. aeruginosa, cutoff for positive-scoring molecules 3-fold increase, read-out: AK-based Prestwick Library Screening Results, P. aeruginosa (increase in extracellular AK activity)): 1
fold induction at 50 µM (E. cloacae; planktonic E. cloacae, cutoff for positive-scoring molecules 3-fold increase, read-out: AK-based Prestwick Library Screening Results, E. cloacae (increase in extracellular AK activity)): 2.4
fold induction at 50 µM (E. coli; planktonic E. coli, cutoff for positive-scoring molecules 3-fold increase, read-out: AK-based Prestwick Library Screening Results, E. coli (increase in extracellular AK activity)): 12.1
